Drawing on patent publication US9481670B2, “Triazine compounds” (Sphaera Pharma PTE. Ltd., priority 2011, dated 2016), this text covers IC50 for 33 compounds.

Some results are limits rather than exact numbers.

The target in the assay is T1, PI3K alpha (Homo sapiens, UniProt P42336).
T1 construct: purchased Millipore Upstate
T1 sequence (P42336 whole entry): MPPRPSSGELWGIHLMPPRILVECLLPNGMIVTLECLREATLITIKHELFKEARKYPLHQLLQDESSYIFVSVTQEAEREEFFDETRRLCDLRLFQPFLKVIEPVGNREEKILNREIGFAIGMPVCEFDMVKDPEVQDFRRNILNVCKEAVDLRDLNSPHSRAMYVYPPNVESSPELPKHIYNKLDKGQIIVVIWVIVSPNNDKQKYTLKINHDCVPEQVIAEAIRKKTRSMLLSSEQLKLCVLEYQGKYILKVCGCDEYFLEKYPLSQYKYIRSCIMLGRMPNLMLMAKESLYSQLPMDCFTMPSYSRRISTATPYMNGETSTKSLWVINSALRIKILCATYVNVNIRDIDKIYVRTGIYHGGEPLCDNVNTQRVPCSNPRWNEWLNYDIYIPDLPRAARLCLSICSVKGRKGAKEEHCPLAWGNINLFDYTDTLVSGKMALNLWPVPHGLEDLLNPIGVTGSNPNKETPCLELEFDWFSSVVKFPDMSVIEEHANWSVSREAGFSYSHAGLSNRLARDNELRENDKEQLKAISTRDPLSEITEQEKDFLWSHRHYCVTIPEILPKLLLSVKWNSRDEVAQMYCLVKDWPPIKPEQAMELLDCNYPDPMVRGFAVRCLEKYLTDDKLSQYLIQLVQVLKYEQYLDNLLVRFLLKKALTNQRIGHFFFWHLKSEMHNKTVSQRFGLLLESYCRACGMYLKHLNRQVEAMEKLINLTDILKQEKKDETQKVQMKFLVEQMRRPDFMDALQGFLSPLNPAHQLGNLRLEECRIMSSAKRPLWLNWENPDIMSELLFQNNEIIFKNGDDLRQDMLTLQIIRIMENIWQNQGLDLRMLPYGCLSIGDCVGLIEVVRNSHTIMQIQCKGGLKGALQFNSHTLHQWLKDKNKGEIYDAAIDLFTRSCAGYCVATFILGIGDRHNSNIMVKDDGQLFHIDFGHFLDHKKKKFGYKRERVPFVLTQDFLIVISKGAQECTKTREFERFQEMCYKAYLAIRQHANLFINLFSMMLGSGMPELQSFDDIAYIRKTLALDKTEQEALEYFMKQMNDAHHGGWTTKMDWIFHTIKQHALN
T1 sequence (P27986 whole entry partner): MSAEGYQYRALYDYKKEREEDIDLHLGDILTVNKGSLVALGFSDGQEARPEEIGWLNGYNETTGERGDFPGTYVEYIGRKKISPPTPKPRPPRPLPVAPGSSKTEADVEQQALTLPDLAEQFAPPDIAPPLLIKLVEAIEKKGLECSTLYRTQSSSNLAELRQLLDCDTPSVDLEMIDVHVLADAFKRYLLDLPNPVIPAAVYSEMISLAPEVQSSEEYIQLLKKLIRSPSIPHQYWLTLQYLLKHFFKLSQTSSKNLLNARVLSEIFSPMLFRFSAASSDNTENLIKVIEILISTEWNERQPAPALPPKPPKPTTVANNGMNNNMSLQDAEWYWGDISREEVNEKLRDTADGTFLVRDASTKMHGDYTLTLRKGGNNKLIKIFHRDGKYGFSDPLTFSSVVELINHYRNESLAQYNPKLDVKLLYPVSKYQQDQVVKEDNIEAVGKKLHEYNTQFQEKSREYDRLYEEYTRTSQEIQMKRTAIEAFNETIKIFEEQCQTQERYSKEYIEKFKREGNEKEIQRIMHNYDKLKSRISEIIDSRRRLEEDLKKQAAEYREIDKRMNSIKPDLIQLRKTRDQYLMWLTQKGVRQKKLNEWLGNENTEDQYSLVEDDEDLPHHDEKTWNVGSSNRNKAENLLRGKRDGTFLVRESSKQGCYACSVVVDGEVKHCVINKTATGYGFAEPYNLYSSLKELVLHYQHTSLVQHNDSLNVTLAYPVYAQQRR
Nature of the assay: P110 Alpha TR-FRET Assay (PI3K alpha kinase assay, HTRF Transcreener ADP Assay). Format: biochemical. The conditions noted are these: PI3K (WT). The procedure, abridged: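 Enzyme (50 ng) and compound were preincubated 20 min in HEPES pH 7.5 buffer containing MgCl2, DTT and vanadate before 10 μM ATP plus 5 μM PIP2 substrate was added for 20 min. ADP produced was quantified by TR-FRET (ADP-d2, anti-ADP cryptate, 1 h).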
Turning to `CN(C)C(=O)C(=O)Nc1ccc(Oc2nc(-c3cccc4[nH]ncc34)nc(N3CCOCC3)n2)cc1` [Compound 1101, N-(4-14-{[4-1-(1H-indazol-4-yl)-6-5-(morpholin-4-yl)-1,3,5-triazin-2-yl]oxy}phenyl)-N′,N′-dimethylethanediamide], the IC50 is less than 5 µM.

For `CS(=O)(=O)N1CCC(Oc2nc(-c3cccc4[nH]ncc34)nc(N3CCOCC3)n2)CC1` [Compound 1102, 4-7-{4-3-[(1-25-methanesulfonylpiperidin-4-yl)oxy]-6-5-(morpholin-4-yl)-1,3,5-triazin-2-yl}-1H-indazole], the concentration for half-maximal inhibition (IC50) was less than 5 µM.

In turn, `CN(C)C(=O)[C@H]1C[C@H](Oc2nc(-c3cccc4[nH]ncc34)nc(N3CCOCC3)n2)CN1` [Compound 1103, (2R,4S)-4-14-{[4-1-(1H-indazol-4-yl)-6-5-(morpholin-4-yl)-1,3,5-triazin-2-yl]oxy}-N,N-dimethylpyrrolidine-2-carboxamide] showed an IC50 of less than 5 µM.

`CN(C)C(=O)CCNc1nc(-c2ccc(N)nc2)nc(N2CCOCC2)n1` [Compound 1104, 3-((4-(6-aminopyridin-3-yl)-6-morpholino-1,3,5-triazin-2-yl)amino)-N,N-dimethylpropanamide]: the IC50 was less than 5 µM.

In turn, `Oc1ccc(-c2nc(N3CCNCC3)nc(N3CCOCC3)n2)cn1` [Compound 1105, 5-12-[4-5-(morpholin-4-yl)-6-3-(piperazin-1-yl)-1,3,5-triazin-2-yl]pyridin-2-ol] returned an IC50 of less than 5 µM.

On to `CN(C)C(=O)Nc1ccc(Oc2nc(-c3cccc4[nH]ncc34)nc(N3CCOCC3)n2)cc1` [Compound 1106, 1-(4-14-{[4-1-(1H-indazol-4-yl)-6-5-(morpholin-4-yl)-1,3,5-triazin-2-yl]oxy}phenyl)-3,3-dimethylurea], for which the IC50 is less than 5 µM.

Consider `CC(C)C(=O)Nc1ccc(Oc2nc(-c3cccc4[nH]ncc34)nc(N3CCOCC3)n2)cc1` [Compound 1107, N-(4-14-{[4-1-(1H-indazol-4-yl)-6-5-(morpholin-4-yl)-1,3,5-triazin-2-yl]oxy}phenyl)-2-30-methylpropanamide], for which the IC50 is less than 5 µM.

`CN(C)C(=O)N1CCC(Oc2nc(-c3cccc4[nH]ncc34)nc(N3CCOCC3)n2)C1` (stereo not drawn) [Compound 1108, 3-14-{[4-1-(1H-indazol-4-yl)-6-5-(morpholin-4-yl)-1,3,5-triazin-2-yl]oxy}-N,N-dimethylpyrrolidine-1-carboxamide] returned an IC50 of less than 5 µM.

In the case of `CN(C)C(=O)N1CCC(COc2nc(-c3cccc4[nH]ncc34)nc(N3CCOCC3)n2)C1` (stereo not drawn) [Compound 1109, 3-22-({[4-1-(1H-indazol-4-yl)-6-5-(morpholin-4-yl)-1,3,5-triazin-2-yl]oxy}methyl)-N,N-dimethylpyrrolidine-1-carboxamide], the IC50 is less than 5 µM.

As to `CN(C)C(=O)c1ccc(COc2nc(-c3cccc4[nH]ncc34)nc(N3CCOCC3)n2)cc1` [Compound 1110, 4-23-({[4-1-(1H-indazol-4-yl)-6-5-(morpholin-4-yl)-1,3,5-triazin-2-yl]oxy}methyl)-N,N-dimethylbenzamide], the IC50 is less than 5 µM.

As to `CN(C)C(=O)c1cccc(Nc2nc(-c3cccc4[nH]ncc34)nc(N3CCNC(=O)C3)n2)c1` [Compound 1111, 3-((4-(1H-indazol-4-yl)-6-(3-oxopiperazin-1-yl)-1,3,5-triazin-2-yl)amino)-N,N-dimethylbenzamide], the IC50 was more than 5 µM.

`CN(C)C(=O)c1ccc(Oc2nc(-c3cccc4[nH]ncc34)nc(N3CCOCC3)n2)cc1` [Compound 1114, 4-14-{[4-1-(1H-indazol-4-yl)-6-5-(morpholin-4-yl)-1,3,5-triazin-2-yl]oxy}-N,N-dimethylbenzamide] came in with a concentration for half-maximal inhibition (IC50) of less than 5 µM.

Compound `c1ccc(CN2CCC(Oc3nc(-c4cccc5[nH]ncc45)nc(N4CCOCC4)n3)CC2)cc1` [Compound 1115, 4-(4-((1-benzylpiperidin-4-yl)oxy)-6-(1H-indazol-4-yl)-1,3,5-triazin-2-yl)morpholine] showed an IC50 of less than 5 µM.

The compound `CC(C)(C)OC(=O)N1CCC(NC(=O)c2cccc(Nc3nc(-c4cccc5[nH]ncc45)nc(N4CCOCC4)n3)c2)CC1` [Compound 1116, tert-butyl 4-(3-((4-(1H-indazol-4-yl)-6-morpholino-1,3,5-triazin-2-yl)amino)benzamido)piperidine-1-carboxylate] had an IC50 of less than 5 µM.

For the compound `O=C1CCN(C(=O)c2cccc(Nc3nc(-c4cccc5[nH]ncc45)nc(N4CCOCC4)n3)c2)CCN1` [Compound 1117, 1-(3-((4-(1H-indazol-4-yl)-6-morpholino-1,3,5-triazin-2-yl)amino)benzoyl)-1,4-diazepan-5-one], the IC50 was less than 5 µM.

The compound `O=C(O)C(Cc1ccccc1)Nc1nc(-c2cccc(O)c2)nc(N2CCOCC2)n1` (stereo not drawn) [Compound 1118, 2-((4-(3-hydroxyphenyl)-6-morpholino-1,3,5-triazin-2-yl)amino)-3-phenylpropanoic acid] showed an IC50 of less than 5 µM.

Regarding `CN(C)Cc1ccc(Oc2nc(-c3cccc4[nH]ncc34)nc(N3CCOCC3)n2)cc1` [Compound 1119, 1-(4-((4-(1H-indazol-4-yl)-6-morpholino-1,3,5-triazin-2-yl)oxy)phenyl)-N,N-dimethylmethanamine], the IC50 was less than 5 µM.

Regarding `CS(=O)(=O)N1CCN(C(=O)CNc2nc(-c3ccc(N)cc3)nc(N3CCOCC3)n2)CC1` [Compound 1120, 2-((4-(4-aminophenyl)-6-morpholino-1,3,5-triazin-2-yl)amino)-1-(4-(methylsulfonyl)piperazin-1-yl)ethanone], the IC50 was more than 5 µM.

The compound `CC(=O)Nc1cccc(-c2nc(N3CCOCC3)nc(N(CC(=O)O)C(C)=O)n2)c1` [Compound 1121, 2-9-{N-[4-1-(3-14-acetamidophenyl)-6-5-(morpholin-4-yl)-1,3,5-triazin-2-yl]acetamido}acetic acid] showed a half-maximal inhibitory concentration (IC50) of more than 5 µM.

On to `CN(C)C(=O)CNc1nc(-c2cccc(C(N)=O)c2)nc(N2CCOCC2)n1` [Compound 1122, 3-12-(4-0-{[(dimethylcarbamoyl)methyl]amino}-6-4-(morpholin-4-yl)-1,3,5-triazin-2-yl)benzamide], for which the IC50 is more than 5 µM.

`CNC(=O)C(=O)N[C@H]1CC[C@H](Oc2nc(-c3cccc4[nH]ncc34)nc(N3CCOCC3)n2)CC1` [Compound 1124, N-methyl-N′-[(1r,4r)-4-9-{[4-1-(1H-indazol-4-yl)-6-5-(morpholin-4-yl)-1,3,5-triazin-2-yl]oxy}cyclohexyl]ethanediamide]: the IC50 was less than 5 µM.

Take `CN(C)C(=O)C(=O)N[C@H]1CC[C@H](Oc2nc(-c3cccc4[nH]ncc34)nc(N3CCOCC3)n2)CC1` [Compound 1125, N,N-dimethyl-N′-[(1r,4r)-4-9-{[4-1-(1H-indazol-4-yl)-6-5-(morpholin-4-yl)-1,3,5-triazin-2-yl]oxy}cyclohexyl]ethanediamide]: the IC50 was less than 5 µM.

Compound `Fc1ccc(-c2nc(N3CCNCC3)nc(N3CCOCC3)n2)cn1` [Compound 1127, 2-1-(6-16-fluoropyridin-3-yl)-4-5-(morpholin-4-yl)-6-3-(piperazin-1-yl)-1,3,5-triazine] had an IC50 of less than 5 µM.

`COc1cccc(-c2nc(N)nc(N3CCOCC3)n2)c1` [Compound 1128, 4-4-(3-13-methoxyphenyl)-6-0-(morpholin-4-yl)-1,3,5-triazin-2-amine] yielded an IC50 of more than 5 µM.

`O=C(Nc1ccccn1)c1cccc(Nc2nc(-c3cccc4[nH]ncc34)nc(N3CCOCC3)n2)c1` [Compound 1129, 3-((4-(1H-indazol-4-yl)-6-morpholino-1,3,5-triazin-2-yl)amino)-N-(pyridin-2-yl)benzamide] displayed an IC50 of less than 5 µM.

On to `CS(=O)(=O)N1CCN(C(=O)c2cccc(Nc3nc(-c4cccc5[nH]ncc45)nc(N4CCOCC4)n3)c2)CC1` [Compound 1130, (3-((4-(1H-indazol-4-yl)-6-morpholino-1,3,5-triazin-2-yl)amino)phenyl)(4-(methylsulfonyl)piperazin-1-yl)methanone], for which the IC50 was less than 5 µM.

Compound `N#Cc1cccc(Oc2nc(-c3cccc4[nH]ncc34)nc(N3CCOCC3)n2)c1` [Compound 1131, 3-22-{[4-1-(1H-indazol-4-yl)-6-5-(morpholin-4-yl)-1,3,5-triazin-2-yl]oxy}benzonitrile] displayed an IC50 of more than 5 µM.

`CN(C)C(=O)c1sccc1Nc1nc(-c2cccc3[nH]ncc23)nc(N2CCOCC2)n1` [Compound 1132, 3-((4-(1H-indazol-4-yl)-6-morpholino-1,3,5-triazin-2-yl)amino)-N,N-dimethylthiophene-2-carboxamide] showed an IC50 of less than 5 µM.

The compound `CN(C)C(=O)[C@@H]1CCC[C@@H](Oc2nc(-c3cccc4[nH]ncc34)nc(N3CCOCC3)n2)C1` [Compound 1133, (1R,3R)-3-14-{[4-1-(1H-indazol-4-yl)-6-5-(morpholin-4-yl)-1,3,5-triazin-2-yl]oxy}-N,N-dimethylcyclohexane-1-carboxamide] gave an IC50 of less than 5 µM.

Compound `Nc1ccc(-c2nc(N3CCNCC3)nc(N3CCOCC3)n2)cn1` [Compound 1134, 5-18-[4-5-(morpholin-4-yl)-6-3-(piperazin-1-yl)-1,3,5-triazin-2-yl]pyridin-2-amine] registered an IC50 of less than 5 µM.

With `NC(=O)CNc1nc(-c2cccc(C(N)=O)c2)nc(N2CCOCC2)n1` [Compound 1135, 3-6-{4-1-[(carbamoylmethyl)amino]-6-2-(morpholin-4-yl)-1,3,5-triazin-2-yl}benzamide], the IC50 is more than 5 µM.

Compound `CSCCC(Nc1nc(-c2cccc(O)c2)nc(N2CCOCC2)n1)C(=O)O` (stereo not drawn) [Compound 1136, 2-((4-(3-hydroxyphenyl)-6-morpholino-1,3,5-triazin-2-yl)amino)-4-(methylthio)butanoic acid] displayed a half-inhibitory concentration (IC50) of less than 5 µM.

`CN(C)C(=O)CNc1nc(-c2cccc(C(F)F)c2)nc(N2CCOCC2)n1` [Compound 1137, 2-((4-(3-(difluoromethyl)phenyl)-6-morpholino-1,3,5-triazin-2-yl)amino)-N,N-dimethylacetamide] displayed an IC50 of more than 5 µM.
